The subject of one series is SINV genomic RNA. Kind of series: Infectivity of genome RNA from treated SINV transfected into BHK cells, plaque assay. Format: cell-based, Sindbis virus. To be noted: irradiated 60 minutes, >330 nm. As for the experimental part: Photolysis with SINV. DPPZPHEN/SINV solutions were prepared by adding a 0.3 mL aliquot of a 600 μM DPPZPHEN stock solution in PBS to 3 mL of purified virus at a concentration of 7-8 log10 pfu/mL and bringing the total volume to 4 mL. The DPPZPHEN/SINV solutions were incubated for 2 hours prior to irradiation, following which 3 mL of the solution was irradiated in quartz cuvettes with 355 nm light under a constant stream of nitrogen with stirring Aliquots of 100 μL were withdrawn over time and analyzed for virus infectivity. The inactivation rate constant was calculated using simple hit theory (Hiatt, Bacteriol. Rev., 28:150-163 (1964); Houghtaling et al., Photochem. Photobiol., 71:20-28 (2000)). For the studies measuring infectivity of genome RNA, a 6.9 μL aliquot of 0.623 M DPPZPHEN stock solution in DMSO was added to a 100 μL of TE12 wild type […] solution (10 log10 pfu/mL) to obtain a 40 mM DPPZPHEN/virus solution. Aliquots of 50 μL were placed into 250 μL inserts, incubated for 2 hours, and either kept in the dark or irradiated for 60 minutes with light >330 nm. At the completion of the experiment all the samples were diluted with 6 mL 1×PBS buffer and precipitated for 2 hours at 4° C. with 10% PEG+NaCl (200 mM). […]

The next series relates to KB cells. Kind of series: Phototoxicity to KB tumor cells, MTT assay. To be noted: dark, zero time point. (Tetrazolium assays rely on reduction of a dye to a coloured formazan, in cell work by metabolically active cells.)
A further series has as its system M109 cells. Kind of series: Phototoxicity to M109 tumor cells, MTT assay. In kind it is cell-based, mouse. To be noted: dark, zero time point. As for the experimental part: (§1) Photolysis with Tumor Cells.
Procedures for cell maintenance, cell plating, drug incubation, photolysis and MTT assay are all same as that used for the KB cell lines. A small amount of dark toxicity was observed (about 15%). A considerable amount of killing occurs with light alone after 30 and 40 minutes of irradiation (FIG. 10).

The next series concerns cells. Kind of series: Phototoxicity, summary statement of Example XII. Format: cell-based.
The subject of a further series is SINV. Kind of series: Photoinactivation of SINV, virus infectivity. Format: cell-based, Sindbis virus. As for the experimental part:
General. The quantity of DNA was determined by the Burton assay (Burton, Biochem. J., 62:315-322 (1956)), and its rhodium content was quantitated using flame atomic absorption spectroscopy (AA). The equilibrium constant for interaction between DPPZPHEN and CT-DNA in the dark was calculated from UV-Vis absorption titration measurements at 380 nm (Wolfe et al., Biochem., 26:6392-6396 (1987); Schemel et al., Biopolymers, 10:465-480 (1971)). Cell viability was determined using the MTT assay (Denizot et al., J. Immunol. Methods, 89:271-277 (1986)). SINV was purified on sucrose gradients as previously described (Owen et al., J. Virol., 70:2757-2763 (1996)). The titer was generally 7-8 log10 pfu/mL at the beginning of each experiment.
Photolysis with SINV. DPPZPHEN/SINV solutions were prepared by adding a 0.3 mL aliquot of a 600 μM DPPZPHEN stock solution in PBS to 3 mL of purified virus at a concentration of 7-8 log10 pfu/mL and bringing the total volume to 4 mL. The DPPZPHEN/SINV solutions were incubated for 2 hours prior to irradiation, following which 3 mL of the […] 100 μL were withdrawn over time and analyzed for virus infectivity. The inactivation rate constant was calculated using simple hit theory (Hiatt, Bacteriol. Rev., 28:150-163 (1964); Houghtaling et al., Photochem. Photobiol., 71:20-28 (2000)). For the studies measuring infectivity of genome RNA, a 6.9 μL aliquot of 0.623 M DPPZPHEN stock solution in DMSO was added to a 100 μL of TE12 wild type […] solution (10 log10 pfu/mL) to obtain a 40 mM DPPZPHEN/virus solution. Aliquots of 50 μL were placed into 250 μL inserts, incubated for 2 hours, and either kept in the dark or irradiated for 60 minutes with light >330 nm. At the completion of the experiment all the samples were diluted with 6 mL 1×PBS buffer and precipitated for 2 hours at 4° C. with 10% PEG+NaCl (200 mM). The PEG precipitated virus was centrifuged at 4° C. for 30 minutes at 14,000 rpm, and the resulting pellet re-suspended in 200 μL of 1×PBS buffer and extracted with equal volumes of phenol and chloroform. The virion RNA was precipitated with ethanol, re-suspended in 100 μL of 1×PBS, and electroporated into about 2×10^7 baby hamster kidney (BHK) cells using 0.2-cm-gap cuvettes. The electroporation utilized 200 Ohms, 1.5 kV, and 25 μF. The cells were incubated at 37° C. for 12 hours in MEM supplemented with 10% fetal calf serum and the viral supernatants were harvested and assayed for the presence of infectious virus by plaque assay.

The next series deals with GN4 cells. Kind of series: Phototoxicity to GN4 tumor cells, MTT assay. In kind it is cell-based, canine. To be noted: dark, zero time point. As to the method:
as §1
Media was decanted from the flask. […] Trypsin-EDTA was then decanted and the flask was incubated at 37° C. for 8 minutes. […] Released cells were suspended in 5 mL of media and shaken well. […] The remaining cells were discarded.
Cells were plated, incubated with the drug, and photolysis was conducted as for the KB cell lines.

The nature of series [1]: Reversed phase HPLC elution on C8 column as measure of hydrophobicity. In kind it is physicochemical. To be noted: 45% acetonitrile in 100 mM ammonium acetate pH 5.4. As to the method:
Reversed phase high performance liquid chromatography (RP-HPLC) was carried out on C8 columns. Compounds were tested using 20%, 30% and 45% acetonitrile in 100 mM ammonium acetate at pH 5.4 for elution on a C8 column, with the intention of achieving an elution time of about 15 minutes. It was expected that the more hydrophobic a compound, the higher the acetonitrile content one would need for the eluent.

Experimental for KB cells: Photolysis with Tumor Cells. […] At the beginning of an experiment media was removed from all plates and the cells were washed with 1 mL of PBS or Hank's salt solution. Drug solution (2 mL) or buffer solution (2 mL) was added to each dish. […] Cells were incubated, with or without metal complex, for 4 hours. After incubation, the solutions were removed from the dishes and the dishes were washed with 1 mL of PBS or Hank's salt solution. A fresh 1 mL of PBS or Hank's salt solution was added to each dish and these were placed on a turntable that sat on the top part of the photolysis chamber. […] The plates were then incubated for 40-48 hours before a determination of the extent of cell toxicity by MTT assay.
Cells were incubated in 75 cm^2 culture flasks. They were grown in Dulbecco's Modified Eagles Medium (D-MEM) supplemented with 10% heat inactivated fetal bovine serum (FBS), 1% L-glutamine-penicillin-streptomycin and 1% amphotericin-B. When cells were not plated for use in an experiment, they were transferred when they were 75-100% confluent using the following procedure. Media was decanted from the flask. Cells were rinsed 1-2 times with 10 mL of Hank's Balanced salt solution. […] Trypsin-EDTA was then decanted and the cells were released from the wall of the flask by tapping the side of the flask. Released cells were suspended in 5 mL media and 1 mL of this suspension was placed in a new culture flasks containing 20 mL of fresh media. The remaining cells were discarded. A culture flask can be used for 3 transfers.
Usually 16-24 hours before a photolysis experiment, cells were plated in 35×10 mm tissue culture dishes and incubated at 37° C. until the experiment was begun. Cells were about 75-100% confluent in the 75 cm^2 culture flask when plated. After being washed and released from the flask as described above, cells were suspended in 40 mL media and 1.5 mL of suspension was placed in each dish.
The concentration of the solution was 70 μM.
The cell dishes were incubated with drug or Hanks balanced salt solution (1 mL) for 3 hours. After incubation, solutions were decanted from the plates and 1 mL of Hank's Balanced salt solution were placed in each. […] Following photolysis, Hank's Balanced salt solutions were decanted and 1 mL of fresh media was placed in each plate.
Plates were incubated for 65 hours and then analyzed for cell survival by MT assay. 5 mg/mL MTT solution in water was prepared and 100 μL of this solution was added to each plate and the plates were incubated for 1.5 hours. Purple crystals formed from live cells. Media was gently removed from plates using a Pasteur pipette, the purple crystals that remained at the bottom of the dish were dissolved in 6 mL of isopropanol.
Phototoxicity studies with long wavelength light (>400 nm). […]

Consider `[Cl-].[Cl][Rh+]12([Cl])([N]3C=CC=c4ccc5c(c43)[N]1C=CC=5)[N]1C=CC=c3c1c1c(c4nc5ccccc5nc34)=CC=C[N]12` [DPPZPHEN, cis-dichloro(dipyrido[3,2a-2′3′c]phenazine)(1,10-phenantroline) rhodium(III) chloride], for which the “plaque formation in cells that received RNA from virus irradiated with compound” value in the series on SINV genomic RNA is “no plaque formation”. In addition, the “cell toxicity in the absence of light” value in the series with KB cells, in the series with M109 cells and in the series on GN4 cells was “no appreciable degree of cell toxicity” throughout. Further, the phototoxicity entry in the series with cells is listed as “are phototoxic”. In addition, the “inactivation rate constant k (simple hit theory)” value in the series with SINV (45 μM, 355 nm irradiation) is reported as 2.4×10^−19 photons^−1. Besides, the “reduction in viral titer” value with SINV (45 μM, 355 nm irradiation) worked out at 6 log. The “effect of the metal complex on the virus in the dark” value in the series with SINV (dark) is reported as “unaffected”. Further, the “rate of photoinactivation under oxygen versus nitrogen” value with SINV (oxygen or nitrogen) was “the same under either oxygen or nitrogen”. Besides, the elution time entry in series [1] is recorded as “about 15 minutes”.

The values above are taken from patent publication US20060111335A1, “Photoactivated anti-viral and anti-cancer agent” (priority 2002, published 2006).
